Data: patent publication US20070027144A1, “Novel use of cannabinoid receptor agonist” (SHIONOGI & CO., LTD., priority 2003, published 2007)

Legend:
[1] = test system: BN rats; experiment: Antigen-induced bronchial hyperresponsiveness in BN rats (acute model); assay type: in vivo, Brown Norway (BN) rats; conditions: oral once 1 h before antigen challenge, 10 mg/kg, P<0.01
Method: (§1) Antigen-induced bronchial hyperresponsiveness in BN rats: Brown Norway (BN) rats (Charles River Japan) were actively sensitized by the intraperitoneal injection of 1 mL mixture containing aluminum hydroxide gel (1 mg) and ovalbumin (0.1 mg, OVA). Ten days later, antigen challenge was performed by the inhalation of an aerosolized 1% OVA solution for 30 min using an ultrasonic nebulizer. ACh was intravenously injected to rats 24 h after antigen challenge under sodium pentobarbital anesthesia (80 mg/kg, i.p.) by increasing doses of ACh every 5 min, then bronchoconstrictor response observed immediately after each ACh injection was measured by the method of Konzett & Rössler with some modifications. Briefly, trachea of rats was incised and a cannula was attached to lung side. […] The insufflation pressure overflowed from inhalation tube was monitored by a pressure transducer (TP-400T, Nihon Kohden) and recorded on a recorder (WT-645G, Nihon Kohden) through a carrier amplifier (AP-601G, Nihon Kohden). […] The area under the curve (AUC) calculated from dose-response curve for ACh was compared between vehicle-treated control group and test compound-treated group, and then statistical significance was analyzed concerning inhibitory effect on bronchial hyperresponsiveness.

[2] = test system: BN rats; experiment: Antigen-induced bronchial hyperresponsiveness in BN rats (chronic model); assay type: in vivo; conditions: oral for 8 days
Method: Antigen-induced bronchial hyperresponsiveness in BN rats: Brown Norway (BN) rats (Charles River Japan) were actively sensitized by the intraperitoneal injection of 1 mL mixture containing aluminum hydroxide gel (1 mg) and ovalbumin (0.1 mg, OVA). Ten days later, antigen challenge was performed by the inhalation of an aerosolized 1% OVA solution for 30 min using an ultrasonic nebulizer. ACh was intravenously injected to rats 24 h after antigen challenge under sodium pentobarbital anesthesia (80 mg/kg, i.p.) by increasing doses of ACh every 5 min, then bronchoconstrictor response observed immediately after each ACh injection was measured by the method of Konzett & Rössler with some modifications. Briefly, trachea of rats was incised and a cannula was attached to lung side. An artificial respirator (SN-480-7, Shinano) was connected to the cannula, and then a fixed amount of air (tidal volume: 3 mL, ventilation frequency: 60 times/min) continuously insufflated to maintain respiration. The insufflation pressure overflowed from inhalation tube was monitored by a pressure transducer (TP-400T, Nihon Kohden) and recorded on a recorder (WT-645G, Nihon Kohden) through a carrier amplifier (AP-601G, Nihon Kohden). Test compounds were administered orally once 1 h before antigen challenge. The area under the curve (AUC) calculated from dose-response curve for ACh was compared between vehicle-treated control group and test compound-treated group, and then statistical significance was analyzed concerning inhibitory effect on bronchial hyperresponsiveness.
(§2) Antigen-induced bronchial hyperresponsiveness in BN rats: BN rats were actively sensitized by the intraperitoneal injection of a mixture containing aluminum hydroxide gel and ovalbumin. Twelve days later, antigen challenge was performed by the inhalation of an aerosolized 1% OVA solution or physiological saline for 30 min using an ultrasonic nebulizer (NE-U12, Omron). […] Inhibitory effect on bronchial hyperresponsiveness was evaluated 24 h after last antigen challenge by the method described in the section of Experimental Example 1.

[3] = test system: guinea pigs; experiment: Antigen-induced bronchial hyperresponsiveness in guinea pigs (acute model); assay type: in vivo; conditions: oral 1 h before antigen challenge
Method: (§3) Antigen-induced bronchial hyperresponsiveness in guinea pigs: Guinea pigs (Charles River Japan) held in an exposure chamber were actively sensitized by the inhalation of an aerosolized 1% OVA solution for 10 min using an ultrasonic nebulizer (NE-U12, Omron) twice with an interval of 1 week. One week later, antigen challenge was performed by inhalation of an aerosolized 1% OVA generated by an ultrasonic nebulizer for 5 min. Test compounds were administered orally 1 h before antigen challenge. In addition, guinea pigs were treated with diphenhydramine (10 mg/kg, i.p.), an antihistamine, to protect the animals from anaphylactic death 10 min before antigen challenge. ACh was intravenously injected to guinea pigs 24 h after antigen challenge under urethane anesthesia (1.4 g/kg, i.p.) by increasing doses of ACh every 5 min, then bronchoconstrictor response observed immediately after each ACh injection was measured by the method of Konzett & Rössler with some modifications. Briefly, trachea of guinea pigs was incised and a cannula was attached to the lung side. An artificial respirator (SN-480-7, Shinano) was connected to the cannula, and then a fixed amount of air (tidal volume: 4 mL, ventilation frequency: 60 times/min) continuously insufflated to maintain respiration. The insufflation pressure overflowed from inhalation tube was monitored by a pressure transducer (TP-400T, Nihon Kohden) and recorded on a recorder (WT-645G, Nihon Kohden) through a carrier amplifier (AP-601G, Nihon Kohden). The area under the curve (AUC) calculated from dose-response curve for ACh was compared between vehicle-treated control group and test compound-treated group, and then statistical significance was analyzed concerning inhibitory effect on bronchial hyperresponsiveness.

[4] = test system: BN rats; experiment: Antigen-induced mucus secretion in BN rats (acute model); assay type: in vivo, Brown Norway (BN) rats; conditions: oral, 10 mg/kg, P<0.01
Method: as §1, with “hyperresponsiveness. […]” for “hyperresponsiveness.”

[5] = test system: guinea pigs; experiment: Bronchodilating effect in guinea pigs (ACh-induced bronchoconstriction); assay type: in vivo; conditions: oral 1 h before ACh injection, 10 mg/kg, P<0.01
Method: Under urethane anesthesia (1.4 g/kg, i.p.), ACh was intravenously injected to guinea pigs by increasing doses of ACh every 5 min, then bronchoconstrictor response observed immediately after each ACh injection was measured by the method of Konzett & Rössler with some modifications. Briefly, trachea of guinea pigs was incised and a cannula was attached to the lung side. An artificial respirator (SN-480-7, Shinano) was connected to the cannula, and then a fixed amount of air (tidal volume: 4 mL, ventilation frequency: 60 times/min) continuously insufflated to maintain respiration. The insufflation pressure overflowed from inhalation tube was monitored by a pressure transducer (TP-400T, Nihon Kohden) and recorded on a recorder (WT-645G, Nihon Kohden) through a carrier amplifier (AP-601G, Nihon Kohden). Test compounds were administered orally 1 h before ACh injection, then the effect on the dose-response curve of ACh was examined. Statistical significance was analyzed concerning broncohdilating effect in guinea pigs.

[6] = test system: guinea pigs; experiment: Antigen-induced airway inflammatory cell infiltration in guinea pigs (acute model); assay type: in vivo; conditions: oral
Method: as §3, with “An artificial respirator (SN-480-7, Shinano) was connected to the cannula, and then a fixed amount of air (tidal volume: 4 mL, ventilation frequency: 60 times/min) continuously insufflated to maintain respiration.” left out
(§4) Antigen-induced airway inflammatory cell infiltration in guinea pigs: After finishing experiment mentioned above, the lungs are washed 3 times with 10 mL of physiological saline through tracheal cannula using injection syringe. Then the cell number in the washing was determined. […] Differential cell counts were performed after May-Grünwald-Giemsa staining, and then statistical significance was analyzed concerning inhibitory effect on airway inflammatory cell infiltration.

[7] = test system: BN rats; experiment: Antigen-induced airway inflammatory cell infiltration in BN rats (acute model); assay type: in vivo, Brown Norway (BN) rats; conditions: oral, P<0.01
Method: as §1, with “hyperresponsiveness. […]” for “hyperresponsiveness.”

[8] = test system: guinea pigs; experiment: Antigen-induced mucus secretion in guinea pigs (chronic model); assay type: in vivo; conditions: oral for 8 days, 30 mg/kg, P<0.01
Method: (§5) Antigen-induced bronchial hyperresponsiveness in guinea pigs: Guinea pigs held in an exposure chamber were actively sensitized by the inhalation of an aerosolized 1% OVA solution for 10 min using an ultrasonic nebulizer (NE-U12, Omron) twice with an interval of 1 week. One week and 2 weeks later, antigen challenge was performed twice by inhalation of an aerosolized 1% OVA generated by an ultrasonic nebulizer for 5 min. Test compounds were administered orally for 8 days from the day of first antigen challenge. On the day of each antigen challenge, test compounds were administered 1 h before challenge. […] Inhibitory effect on bronchial hyperresponsiveness was evaluated 24 h after last antigen challenge by the method described in the section of Experimental Example 7. The area under the curve (AUC) calculated from dose-response curve for ACh was compared between vehicle-treated control group and test compound-treated group, and then statistical significance was analyzed concerning inhibitory effect on bronchial hyperresponsiveness.
Antigen-induced mucus secretion in guinea pigs: After measurement of bronchial hyperresponsiveness, the lungs are washed 3 times with 10 mL of physiological saline through tracheal cannula using injection syringe, and then the washing was centrifuged. […] Statistical significance was analyzed concerning inhibitory effect on mucus secretion.

[9] = test system: guinea pigs; experiment: Antigen-induced airway inflammatory cell infiltration in guinea pigs (chronic model); assay type: in vivo; conditions: oral for 8 days, 30 mg/kg, P<0.01
Method: as §5
Antigen-induced airway inflammatory cell infiltration in guinea pigs: After finishing experiment mentioned above, the lungs are washed 3 times with 10 mL of physiological saline through tracheal cannula using injection syringe. Then the cell number in the washing was determined. […]

[10] = test system: BN rats; experiment: Antigen-induced airway inflammatory cell infiltration in BN rats (chronic model); assay type: in vivo; conditions: oral for 8 days, 100 mg/kg, P<0.01
Method: as §2, with “Omron). To establish chronic bronchial hyerreactivity model, this procedure was repeated 3 times with 1-week intervals. Test compounds were administered orally for 8 days from the day of third antigen challenge. On the day of third antigen challenge, test compounds were administered 1 h before challenge.” for “Omron).”
as §4, with “BN rats:” for “guinea pigs:”, “were” for “are”, “5” for “10”, “infiltration as in the section of Experimental Example 2.” for “infiltration.”

[11] = test system: guinea pigs; experiment: Antigen-induced bronchial hyperresponsiveness in guinea pigs (chronic model); assay type: in vivo; conditions: oral for 8 days, 30 mg/kg, P<0.05
Method: as §3, with “An artificial respirator (SN-480-7, Shinano) was connected to the cannula, and then a fixed amount of air (tidal volume: 4 mL, ventilation frequency: 60 times/min) continuously insufflated to maintain respiration.” left out, “The area under the curve (AUC) calculated from dose-response curve for ACh was compared between vehicle-treated control group and test compound-treated group, and then statistical significance was analyzed concerning inhibitory effect on bronchial hyperresponsiveness.” left out

CCCCn1c2c(cc(C(=O)NC(C)(C)c3ccccc3)c1=O)CCCCCC2 [Compound 4-320]
significant effect: inhibitory effect on bronchial hyperresponsiveness (AUC of ACh dose-response curve vs vehicle) [1] | inhibitory effect on bronchial hyperresponsiveness ([2]; 3 mg/kg, P<0.01) | inhibitory effect on bronchial hyperresponsiveness (AUC of ACh dose-response curve vs vehicle) ([3]; 1 mg/kg, P<0.01) | inhibitory effect on bronchial hyperresponsiveness (AUC of ACh dose-response curve vs vehicle) ([3]; 10 mg/kg, P<0.05) | inhibitory effect on mucus secretion (mucin levels in lung washing) [4] | bronchodilating effect (effect on the dose-response curve of ACh) [5] | inhibitory effect on airway inflammatory cell infiltration ([6]; 1 mg/kg, P<0.05) | inhibitory effect on airway inflammatory cell infiltration ([6]; 10 mg/kg, P<0.01) | inhibitory effect on airway inflammatory cell infiltration ([7]; 1 mg/kg) | inhibitory effect on airway inflammatory cell infiltration ([7]; 10 mg/kg)

CSC(=S)N1CC2(CCCCC2)CS/C1=N\c1ccc(OC(F)(F)F)cc1 [Compound I-12]
significant effect: inhibitory effect on bronchial hyperresponsiveness ([2]; 30 mg/kg, P<0.01) | inhibitory effect on bronchial hyperresponsiveness ([2]; 100 mg/kg, P<0.05) | inhibitory effect on bronchial hyperresponsiveness (AUC of ACh dose-response curve vs vehicle) ([3]; 10 mg/kg, P<0.05) | inhibitory effect on mucus secretion (mucin levels in lung washing) [8] | inhibitory effect on airway inflammatory cell infiltration [9] | inhibitory effect on airway inflammatory cell infiltration ([6]; 10 mg/kg, P<0.05) | inhibitory effect on airway inflammatory cell infiltration [10] | inhibitory effect on bronchial hyperresponsiveness (AUC of ACh dose-response curve vs vehicle) [11]
